Data: paper doi:10.1101/2024.07.24.604796 (bioRxiv, 2024)

Target: full-length FhlA (Escherichia coli, UniProt P19323)
Type: binding
Conditions: 32 uM protein; 10 mM Tris pH 8, 100 mM NaCl, 5 mM MgCl2, on ice; labelled compound

Chain of full-length FhlA (P19323 whole entry): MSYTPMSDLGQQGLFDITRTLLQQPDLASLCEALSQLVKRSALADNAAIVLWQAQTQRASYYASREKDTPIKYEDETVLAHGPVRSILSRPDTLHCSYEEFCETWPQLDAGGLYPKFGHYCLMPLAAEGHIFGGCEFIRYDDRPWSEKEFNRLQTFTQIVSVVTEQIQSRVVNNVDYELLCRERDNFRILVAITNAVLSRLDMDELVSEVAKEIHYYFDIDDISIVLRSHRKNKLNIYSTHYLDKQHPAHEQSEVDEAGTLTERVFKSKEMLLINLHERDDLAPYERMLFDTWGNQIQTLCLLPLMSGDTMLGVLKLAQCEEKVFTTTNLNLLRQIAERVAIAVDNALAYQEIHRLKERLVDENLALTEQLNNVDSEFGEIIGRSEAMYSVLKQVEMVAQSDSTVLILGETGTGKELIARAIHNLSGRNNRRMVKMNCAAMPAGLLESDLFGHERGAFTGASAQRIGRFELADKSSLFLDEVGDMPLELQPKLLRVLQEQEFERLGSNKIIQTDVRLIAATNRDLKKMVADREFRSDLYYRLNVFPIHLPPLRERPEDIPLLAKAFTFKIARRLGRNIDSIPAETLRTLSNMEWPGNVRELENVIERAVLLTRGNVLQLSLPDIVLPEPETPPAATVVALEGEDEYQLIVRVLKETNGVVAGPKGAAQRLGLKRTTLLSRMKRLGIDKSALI

## O=CO [formate]
  14C-formate DRaCALA: DRaCALA with full-length purified FhlA, and full-length E183K and E363K derivatives produced similar pattern
